Test results: patent publication US5686426A, “Dicarboxymethylated glycolipid derivatives as cell adhesion inhibitors” (Bristol-Myers Squibb Company, priority 1994, dated 1997)

Tests used:
P-selectin [1] = target: T1, P-selectin (Homo sapiens, UniProt P16109); details: anionic polymers; literature; cited from earlier work
T1 sequence (P16109 42-830): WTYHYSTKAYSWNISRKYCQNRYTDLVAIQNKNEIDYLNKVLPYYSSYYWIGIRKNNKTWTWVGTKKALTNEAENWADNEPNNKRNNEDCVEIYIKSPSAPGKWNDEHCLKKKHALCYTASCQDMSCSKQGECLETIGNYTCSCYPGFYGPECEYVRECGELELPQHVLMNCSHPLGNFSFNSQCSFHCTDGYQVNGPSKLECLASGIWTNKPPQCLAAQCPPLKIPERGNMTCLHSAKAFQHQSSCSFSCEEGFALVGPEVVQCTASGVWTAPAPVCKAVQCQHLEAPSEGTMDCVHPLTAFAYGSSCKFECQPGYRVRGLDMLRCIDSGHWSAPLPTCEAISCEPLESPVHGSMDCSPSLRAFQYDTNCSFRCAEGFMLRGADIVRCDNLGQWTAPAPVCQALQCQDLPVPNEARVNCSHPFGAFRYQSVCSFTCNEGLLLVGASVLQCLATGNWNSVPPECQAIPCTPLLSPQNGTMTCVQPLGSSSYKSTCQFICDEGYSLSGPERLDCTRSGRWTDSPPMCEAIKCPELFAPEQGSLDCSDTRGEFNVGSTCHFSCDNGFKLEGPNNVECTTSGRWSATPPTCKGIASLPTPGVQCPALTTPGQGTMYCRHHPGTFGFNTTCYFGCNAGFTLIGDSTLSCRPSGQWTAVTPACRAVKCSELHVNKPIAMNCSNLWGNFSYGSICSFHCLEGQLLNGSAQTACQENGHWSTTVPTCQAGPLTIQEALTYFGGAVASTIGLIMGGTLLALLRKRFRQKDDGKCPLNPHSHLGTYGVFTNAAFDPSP

[2] = tested on: reverse passive Arthus reaction in rats; test: Reverse Passive Arthus Reaction in Rats (RPA); type: in vivo, Male Sprague Dawley rats; details: rat, single IV dose 3 mg, 4 hours
Description: The reverse passive Arthus reaction in rats is a modification of the method by Mulligan et al., as described in J. Clin. Invest., (1991) 88: 1396-1406. This is an experimental model in which the interaction of antigen-antibody complexes and complement leads to a severe vasculitis that is associated with edema, induration, erythema and hemorrhage. The interaction between the antigen-antibody complexes and complement leads to a localized influx of neutrophils. These neutrophils release a variety of mediators that are associated with tissue damage and vascular permeability. The localized inflammatory reaction is measured using different techniques i.e., vascular permeability and neutrophil influx which is evaluated both biochemically and microscopically.
Male Sprague Dawley specific pathogen-free rats with jugular vein cannulae (280-320 g, Hill Top Labs, Pa.) are used in these studies. Animals are acclimated for at least 1 day and individually housed in stainless steel cages. The dorsal region of the rats is closely clipped 2 days prior to the experiments and divided into 4 sites on each side of the midline. Prior to all injections the rats are sedated with 0.4 ml per 300 gm rat of ketamine/rompun [1000 mg (10 ml) of ketamine HCL is mixed with 40 mg (2.0 ml) Rompun] administered IP and or inhalation anesthesia with metafane (methoxyflurane).
Bovin Serum Albumin (BSA) and rabbit polyclonal IgG rich in anti-BSA are purchased from Sigma Chemical Co. (St. Louis, Mo.). Radiolabelled ^125 I-BSA (spAct 1-5 μCi/μg) is purchased from Dupont NEN (Boston, Mass.).
Each rat is administered intradermal (ID) injection of (0.4 mg, 0.6 mg and 0.8 mg) anti-BSA in a volume of 100 μl per injection in normal saline. The ID injections are randomized near the mid dorsal region on both sides of the back bone. Immediately after the ID injections of the anti-BSA, the rats are administered intravenous (IV) injections of BSA (10 mg in 1.0 ml) in normal saline containing ^125 I labeled BSA (1 μCi/ml BSA or 5.0 μCi/kg body wt) for quantification of dermal vascular injury. Anti-inflammatory agents such as inhibitors of adhesion molecules of the present invention are administered IV at a single dose of 3 mg immediately after BSA. Four (4) hours after the IV injection of BSA, the rats are anesthetized with metafane and 2 to 3 ml of blood is withdrawn via the cannula into an anticoagulant containing (EDTA or Heparin) tube and plasma separated and saved for neutrophil and albumin quantitation. The rats are killed and the skin surrounding the injection site (15 mm diameter) is punched out and weighed. The skin samples and a fixed volume of plasma (0.1 to 1.0 ml) is analyzed in a gamma-counter for ^125 I content. Skin samples from the contralateral side are processed and analyzed for myeloperoxidase activity (MPO) as a measure of neutrophil accumulation. As needed, samples are also processed for histological evaluation of the reacted sites.
Vascular Permeability (VP)
The calculation of the plasma protein exudation into skin is made by determining the radioactivity in the tissue and relating this to the level of radioactive albumin in the blood at the time of sacrifice. […] [formula]
Percent inhibition of the test compound at 3 mg was determined as follows: [formula] Myeloperoxidase (MPO)
MPO is located in the azurophil granules of polymorphonuclear leukocytes (PMN). Because of its abundance in these cells (5% dry weight), this enzyme is used as a marker for tissue neutrophil content. For tissue MPO content, the method of Bradley, et al., was used as described in J. Invest. Dermatol. (1982) 78: 206-209. Biopsies from each treatment group were placed in plastic tubes (15×100 mm) containing 10 ml of 0.5% hexadecyltrimethylammonium bromide (HTAB)in 0.05M potassium phosphate buffer pH 6.0. The tissue was then homogenized with a Brinkmann Polytron homogenizer (10s). […]

[3] = tested on: HL-60 cells / activated platelets (P-selectin); test: HL-60 Platelet Cell Adhesion Assay; type: cell-based; details: HL-60 cell adhesion to thrombin-activated human platelets
Experimental: HL-60 cells, obtained from American Type Culture Collection, were cultured in RPMI 1640 medium (GIBCO) supplemented with 20% fetal calf serum (Sigma) and 50 μg/ml gentamicin (GIBCO). Cells in log phase growth were harvested, washed and resuspended in Tyrodes buffer containing 5 mM HEPES and 0.2% bovine serum albumin and were fixed with 1% buffered formalin.
Blood from normal human donors was anticoagulated with citrate, layered over 1-Step Platelets (Accurate Chemical Co.), and centrifuged at 350 g for 20 minutes at room temperature. The platelet band was collected, diluted in 2 volumes of Tyrode's Buffer with 5 mM HEPES, 10 mM EDTA, and 0.2% BSA (pH 7.4) (THEB) and centrifuged at 600 g for 10 minutes. The platelet pellet was resuspended in THEB and incubated at room temperature for 1 hour. Calcein-acetoxy methylester (Calcein-Am, Molecular Probes) was added to the platelets at a final concentration of 10 μM and incubated for 10 minutes at 37° C. to label the platelets. Without washing, the platelets were counted on a Coulter counter model ZM, and the concentration was adjusted to 1×10^7 /ml. The platelets were activated with 2 U/ml of human thrombin for 10 minutes in Tyrode's containing 2 mM CaCl2, 5 mM HEPES, and 0.2% BSA (pH 7.4) (THB) at 37° and immediately fixed with 1% buffered formalin for 1 to 2 hours at room temperature. A small aliquot of labeled platelets was removed before activation and designated as non-activated.
Both platelets and HL-60 were washed in a ≥5 fold excess volume of Hanks Balanced Salt Solution (HBSS), resuspended in THB and counted. Cell concentrations were adjusted to 2×10^7 /ml for platelets and 4×10^6 /ml for HL-60, this ratio determined to be optimum for platelet: HL-60 cell adhesion. Compounds were incubated with 50 μl of platelets for 30 minutes at room temperature before addition of 50 μl of HL-60. This ratio of 5:1 platelets to HL-60 was incubated for 30 minutes at room temperature before addition of 0.2 ml of THB to increase the volume so the samples could be analyzed on a FACScan cytometer (Becton Dickinson). Non-activated platelets, and activated platelets with 10 mM EDTA were included as controls. Data were collected within a region set for the forward scatter channel corresponding to HL-60 size events.
The percent HL-60 cells which contained bound platelets was determined for each test condition. The inhibition of binding was determined by comparison to standards which were treated with vehicle alone (representing 0% inhibition) and standards whose specific binding had been blocked by the use of EDTA (representing 100% inhibition), by the following formula: [formula] where x=HL-60 cells containing bound platelets in the presence of the compound;
b=HL-60 cells containing bound platelets in the presence of EDTA;
a=HL-60 cells containing bound platelets in presence of compound vehicle;
z=% inhibition of platelet: HL-60 cell adhesion

P-selectin [4] = target: T1, P-selectin; details: literature; cited from earlier work

Compound: heparin
- inhibition of P-selectin mediated adhesion (in words) (P-selectin [1]): shown to inhibit P-selectin mediated adhesion

Compound: CCCCCCCCCCCCC/C=C/[C@@H](OC(=O)c1ccccc1)[C@H](CO[C@H]1O[C@H](COC(=O)c2ccccc2)[C@H](OCC(=O)O)[C@H](OCC(=O)O)[C@H]1OC(=O)c1ccccc1)NC(=O)CCCCCCCCCCCCCCC [Example 10, (2S,3R,4E)-2-Hexadecanoylamino-3-benzoyloxy-1-[3,4-di-O-carboxy-methyl-2,6-di-O-benzoyl-α-D-galactopyranosyloxy]-4-octadecene]
- RPA VP % Inhib. (vascular permeability) ([2]; 125I-BSA plasma extravasation into skin): 54%
- RPA MPO % Inhib. (myeloperoxidase, neutrophil accumulation) ([2]; skin MPO activity): 65%
- IC50 [3]: > 100 µM

Compound: dextran sulfate
- inhibition of P-selectin mediated adhesion (in words) (P-selectin [1]): shown to inhibit P-selectin mediated adhesion

Compound: CC(=O)N[C@H]1C(O)O[C@H](CO)[C@@H](O[C@@H]2O[C@H](CO)[C@H](O)[C@H](O)[C@H]2O)[C@@H]1O[C@@H]1O[C@@H](C)[C@@H](O)[C@@H](O)[C@@H]1O (stereo partly shown) [Le^x]
- binding to P-selectin (in words) (P-selectin [4]): shown to bind

Compound: fucoidan
- inhibition of P-selectin mediated adhesion (in words) (P-selectin [1]): shown to inhibit P-selectin mediated adhesion
